# Source: PubChem BioAssay AID449764 (Southern Research Specialized Biocontainment Screening …, 2010)
# System: Mycobacterium tuberculosis H37Rv growth inhibition, no glycerol
# Experiment: Mycobacterium tuberculosis H37Rv growth inhibition, no glycerol, confirmatory dose response (AID 449764);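 further: growth read after 7 days of incubation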
# Conditions: for IC90: measured here: IC90 growth inhibition
SMILES,IC50 [µM],IC90 [µM]
CC1(O)CC(c2ccc(Cl)cc2)=NN1C(=O)c1ccc([N+](=O)[O-])cc1 (centres undefined),7.79,> 100
COc1ccc(C(CCNCc2ccc(OC(C)C)cc2)C(C)C)cc1 (centres undefined),23.8,32.4
Cc1cc(C)n(-c2cc(C(C)(C)C)nc3c(-c4ccccc4)cnn23)n1,36.1,47.3
COc1ccc(C(=O)/C=C/Sc2nc3ccccc3o2)cc1,90.8,> 100
Clc1ccc(C(Cn2ccnc2)OCc2csc3c(Cl)cccc23)c(Cl)c1 (centres undefined),17.7,23.9
CN1C(=S)SC(N(O)C(=O)Nc2ccc(Cl)c(Cl)c2)C1(C)C (centres undefined),23.4,26.6
Cc1ccc(N(CCC#N)C(=O)CCl)cc1C,5.11,8.42
CCOC(=O)[C@@H]1[C@H]2COc3cc(OC)ccc3[C@H]2N2C(=O)N(c3ccc(C(F)(F)F)cc3)C(=O)[C@]12C,5.78,6.27
CCN(CC)c1nc(NN)nc(Nc2ccc(C)c(Cl)c2)n1,5.84,6.79
CCCOc1cccc(C(=O)NC(=S)Nc2ccc(N3CCN(C)CC3)cc2)c1,,> 100
COc1ccccc1N1CCN(CCCCOc2cccc3ccccc23)CC1,33,43.5
Cc1nc(N)nc(N)c1CCCc1ccc(Cl)c(Cl)c1,87.4,> 100
Nc1ccc(N=Nc2ccccc2)c2cccnc12,34.7,64.2
Cc1ccc(-c2noc(=O)n2CC(=O)c2ccc(Cl)cc2)cc1,,> 50
CC1=NN(c2ccccc2)C(=O)/C1=C\c1c(C)[nH]n(-c2ccccc2)c1=O,,> 100
O=[N+]([O-])c1ccc(CN2CCN(c3ccc(Cl)cc3)CC2)o1,0.44,> 100
Cc1cccc(N2CCN(CCCNC(=O)c3ccc(NC(=O)C4=CSCCO4)cc3)CC2C)c1 (centres undefined),19.7,28.7
CN(C)C1(CNC(=O)Nc2ccc(Cl)c(Cl)c2)CCCCC1,11.8,13.1
c1ccc(-c2ccc(C(c3ccccc3)n3ccnc3)cc2)cc1 (centres undefined),23.2,26.4
COC(=O)CSc1ncnc2c1sc1nc3c(cc12)COC(C)(C)C3,5.81,8.03
CNc1ncnc2c1ncn2[C@@H]1O[C@H](CO)[C@@H](O)[C@H]1O,3.97,9.18
N#CCn1c(CCl)nc2ccccc2c1=O,22.8,25.8
CCN(CC)CCNC(=O)c1ccc(NC(=O)c2cn(-c3ccccc3)nc2-c2cccs2)cc1,24.4,27.6

SMILES,IC50 [µM],IC90 [µM]
CC1CCN(C(=S)NC(=O)c2cccs2)CC1,23,26.3
C(=N\Nc1ncnc2sc3c(c12)CCC3)/c1cccs1,36.9,54.2
O=[N+]([O-])c1cc([N+](=O)[O-])c2cc3ccccc3nc2c1,< 0.2,0.64
O=c1[nH]c(CN2CC=C(c3ccccc3)CC2)nc2cc(C(F)(F)F)ccc12,93.7,98.9
COC(=O)C1C(O)C(C)C(O)C(C)/C=C\C=C(/C)C(=O)Nc2c(C)c(OC(C)=O)c3c(c2O)C(=O)C(C)=C2OCOC(=C23)/C(C)=C/C(C)(O)C(O)C(C)C1O (centres undefined),< 0.2,< 0.2
CCCCCCCCSc1nnc(CSc2nc3nc(C)cc(C)n3n2)o1,2.63,6.27
CCOC(=O)Cn1c(-c2ccccc2)ccc(C#N)c1=O,10.4,> 50
O=C(Nc1ccccc1)C1=C[C@@H](C2CCCCC2)C[C@@H](OCc2ccc(CO)cc2)O1,36,47.6
O=[N+]([O-])c1ncccc1Oc1nc(-c2cccnc2)nc2ccccc12,0.82,3.87
COC(=O)C(C)Oc1ccc2c(c1)O/C(=C\c1ccco1)C2=O (centres undefined),11.3,17.2
Cc1oc2c(c1C(=O)NCc1cccnc1)C(=O)c1ccccc1C2=O,12.3,14.2
COc1ccc2nc(N=NC3=C(O)CC(C)(C)CC3=O)sc2c1,13.5,17.2
Cn1c(CNc2nc(-c3ccccc3)cs2)nnc1SCC(=O)OC1CCCCC1,24,27.3
CC12CCC(=O)N1C(C(=O)Nc1ccc(SC(F)F)cc1)CS2 (centres undefined),47.8,> 100
NCCCn1c(C(=O)c2ccc(Cl)cc2)c2ccc([N+](=O)[O-])cc2[n+]1[O-],34,44.2
CC(OC(=O)c1cc(Cl)ccc1[N+](=O)[O-])C(=O)NC(C)c1ccc(F)cc1 (centres undefined),27.6,> 100
CCOc1cccc2cc(C(=O)Nc3nccs3)c(=O)oc12,2.4,15.3
Nc1[nH]n2c(=O)cc(-c3ccccc3)nc2c1N=Nc1ccc2c(c1)OCO2,33.2,50.2
N/C(=N\OC(=O)Nc1ccc(Cl)c(Cl)c1)c1ncc(C(F)(F)F)cc1Cl,28.9,35.7
COc1ccccc1/C(C)=N/NC(=S)NCc1ccccc1,23.6,27.1
CCN1CSC(=S)N(Cc2ccccc2)C1,32.5,60.7
N#CCCN(C(=O)COC(=O)CCc1c[nH]c2ccccc12)c1ccc(F)cc1,34.4,68.5
Oc1ccc(C[C@H]2CNCCN2CCCCC2CCCCC2)cc1,40,55.3

SMILES,IC50 [µM],IC90 [µM]
CC1=NNC(=O)/C1=C\c1cn(-c2ccccc2)nc1-c1ccc(Cl)cc1,45.2,48.8
c1ccc(-c2nc3nonc3nc2-c2ccccc2)cc1,28.9,39.4
Cc1ccc(S(=O)(=O)Nc2cccc3ncccc23)s1,3.38,6.54
COc1ccc(-c2nnc3sc(C4CCCCC4)nn23)cc1OC,45.6,51.6
Nc1c(N(CCC2=CCCCC2)C(=O)c2ccc([N+](=O)[O-])o2)c(=O)[nH]c(=O)n1Cc1ccccc1,27.9,48.2
Cc1ccccc1Nc1nc(N)nc(COC(=O)c2ccc([N+](=O)[O-])o2)n1,88.7,> 100
CCOC(=O)c1ccc(-n2c(CCC(=O)O)ccc2-c2cccs2)cc1,20.8,23.6
CC1CC(C)(C)Nc2ccc(OC(=O)c3ccco3)cc21 (centres undefined),21.7,29.5
Cn1nc(-c2ccccn2)nc2c(=O)n(C)c(=O)nc1-2,12.5,13
CCCCNC(=S)N(C)/N=C/c1ccc2c(c1)OCO2,11.8,21.6
O=C(CCl)Nc1nccs1,4.87,9.14
Cc1sc2ncnc(N3CCC(C(=O)N(CC(C)C)c4nc5ccccc5s4)CC3)c2c1C,,> 100
Cc1cc(C(=O)CCl)c(C)n1-c1cccc([N+](=O)[O-])c1,2.42,6.49
C=CCOc1c(Br)cc(CNc2nccs2)cc1OC,31.4,48.2
CSC1=NC(C)(C)C=C(/C=C/c2ccc(Cl)cc2)N1,38.3,56.7
Cc1ccc(CN2CCC(c3cc(-c4ccc(Cl)cc4)n[nH]3)CC2)cc1,11.7,18.2
O=C(c1ccc(Br)cc1)C(CN1CCOCC1)c1ccccc1 (centres undefined),12,13.8
O=c1c(Cl)c2oc3ccccc3nc-2c2ccccc12,12.1,17.9
c1ccc2sc(Sc3ncnc4sccc34)nc2c1,11.4,12.9
C=C[C@]1(C)C[C@@H](OC(=O)CSCCN(CC)CC)[C@]2(C)C(C)CC[C@]3(CCC(=O)[C@H]32)[C@@H](C)[C@@H]1O (some centres undefined),5.69,8.16
Cc1cc(C)cc(NC(=O)c2ccc(Cn3nc(C)c(Cl)c3C)o2)c1,34.8,48.3
O=C(N/N=C/c1ccc([N+](=O)[O-])o1)c1sc2ccccc2c1Cl,5.69,8.72
CC(=O)Oc1ccc(/C=N\NC(=O)c2cc3c(ccc4ccccc43)o2)cc1,,> 100

SMILES,IC50 [µM],IC90 [µM]
CC(C)(C)NC(=O)C(=O)NNC(=O)c1ccc(C(C)(C)C)cc1,14.4,> 100
N#CC(C(=O)Nc1ccccc1)=C1Nc2ccccc2N1,39.1,> 100
Cc1cc(Cl)ccc1OCCCC(=O)NO,65.1,> 100
Nc1c2c(nc3sc4c(c13)CCCCC4)CCCC2,3.12,8.41
Cc1ccc2[nH]c(C(=O)NN=C3CCCCC3)c(-c3ccccc3)c2c1,33.6,53.3
COC(=O)CCc1nc2c(C#N)c(-c3ccc(Cl)cc3)ccn2n1,2.71,5.22
CCOC(=O)C1=C(C)NC(SCC(=O)Nc2nc(C)cs2)=C(C#N)C1c1cccs1 (centres undefined),31.3,49.8
N#Cc1ccc(CN2CCN(CC(=O)NCCc3ccc(Cl)cc3Cl)CC2)cc1,44.9,51.2
COC(=O)COc1ccc(-c2ccccc2)cc1C=O,16.1,26
CCn1nc(NC(=O)c2ccncc2)c2cc3cc(C)ccc3nc21,4.7,> 100
CCCCCc1ccc(-c2cn(Cc3cccc(OC)c3)nn2)cc1,38.9,> 100
C=CCNCC(=O)N1N=C(c2ccc3ccccc3c2)CC1c1ccc(OC)cc1 (centres undefined),18.4,23.3
CC1CCN(C(=O)C2CCN(c3nnc(-n4cccc4)s3)CC2)CC1,3.51,6.13
O=C(Nc1ccc(N2CCN(C(=O)c3ccco3)CC2)cc1)C(c1ccccc1)c1ccccc1,24.1,27.2
Cc1csc(NC(=S)Nc2cccc(Cl)c2)n1,4.42,6.91
Cc1ccc(CNC(=O)c2sc3nc4c(c(C(F)(F)F)c3c2N)CCC4)cc1,46.3,50.9
O=C(CCN1C(=O)/C(=C/c2ccccc2)SC1=S)Nc1ccccn1,,> 100
CC1CCCC/C1=N\NC(=S)NCCc1ccccc1 (centres undefined),42.5,47.9
CC(C)n1cnc2c(NCc3ccccc3)cc(Cc3ccc(F)cc3)cc21,34.4,49.3
O=C(NCCCN1CCOCC1)c1cc2c([nH]c3ccccc32)c(-c2cccc(Br)c2)n1,18.6,24.3
O=C(Nc1ccc([N+](=O)[O-])cc1)Nc1ccc(OC(F)F)c(Cl)c1,2.5,3.63
